Source: patent EP4620962A1, “PEPTIDE HAVING ACTIVITIES TO PROMOTE HAIR GROWTH AND AMELIORATE DAMAGED HAIR, AND USE THEREOF” (Caregen Co., Ltd., priority 2022, dated 2025)

Experiments:
ERF and AKT = assay: Western blot of proliferation-related factors (phospho-AKT, phospho-ERK) in hair follicle dermal papilla cells; assay type: cell-based, human; details: 5 µM, or 50 µM, 24 hours, FIGS. 3 and 4
Description: In this experimental example, effects of a peptide according to an embodiment on activation of factors related to proliferation of human hair follicle dermal papilla cells were examined. Specifically, human hair follicle dermal papilla cells were seeded on a 6-well plate at a density of 4×10^5 cells/well, followed by incubation in a mesenchymal stem cell complete medium for 24 hours. Thereafter, a peptide according to an embodiment was aliquoted thereinto at a concentration of […], 5 µM, or 50 µM, followed by incubation for 24 hours at 37 °C. Then, the culture was washed with PBS, and 100 µL of a lysis buffer to prepare a cell lysate. Subsequently, bicinchoninic acid (BCA) was quantified to prepare an equal amount of a protein sample, followed by electrophoresis using a 10 % SDS-PAGE gel. Thereafter, proteins separated by the SDS-PAGE were transferred to a PVDF membrane, and the reaction was blocked using a 5 % skim milk at room temperature for 30 minutes. Then, phospho-AKT and phospho-ERK (cell signaling, USA) antibodies were diluted in a 3 % BSA at 1:1000 and reacted with the blocked PVDF membrane at 4 °C for 16 hours. Subsequently, the reactants were washed with 0.1 % PBS-T (0.1 % Tween-20 in PBS) three times each for 15 minutes and reacted for 1 hour with a secondary antibody diluted with 5 % skim milk at 1:2000. […]

[1] = tested on: LEF-1, c-Myc, and cyclin D1; assay: RT-PCR of beta-catenin downstream target genes in hair follicle dermal papilla cells; assay type: cell-based, human; details: RNA level, FIG. 7 (Peptide-1: c-Myc, cyclin D1), FIG. 8 (Peptide-2: LEF-1, c-Myc, cyclin D1)
Description: In addition, a change in expression levels of lymphoid enhancer-binding factor-1 (LEF-1), c-Myc, and cyclin D1, which are downstream target genes of activating mechanism of beta-catenin, was examined. To this end, human hair follicle dermal papilla cells were incubated in the same manner in Experimental Example 2-2 and treated with a peptide according to an embodiment. Thereafter, the culture was washed with PBS and treated with 300 µL of easy blue (intron, Korea) to extract RNAs. Then, the extract RNAs were quantified by Nano drop, and cDNA was synthesized by using the RNAs as a template and using a cDNA synthesis kit (enzynomics, Korea). Then, polymerase chain reaction (PCR) was carried out using primers of Table 2 below and a PCR premix (enzynomics, Korea), followed by electrophoresis using a 1.5 % agarose gel, and gene expression was examined in the RNA level by a Bio-Rad gel image system.

[2] = tested on: human hair follicle dermal papilla cells (HFDPCs); assay: Proliferation of hair follicle dermal papilla cells (MTT); assay type: cell-based; details: 5 µM, or 50 µM, 72 hours, absorbance at 540 nm, FIGS. 1 and 2
Description: In this experimental example, effects of a peptide according to an embodiment on proliferation of human hair follicle dermal papilla cells were examined by evaluating a change in viability of the human hair follicle dermal papilla cells (HFDPCs). Specifically, human hair follicle dermal papilla cells were seeded on a 96-well plate at a density of 4×10^3 cells/well, followed by incubation in a mesenchymal stem cell complete medium for 24 hours. Subsequently, the culture medium was replaced with a serum free mesenchymal stem cell complete medium, followed by incubation for 24 hours. Thereafter, a peptide according to an embodiment was aliquoted thereinto at a concentration of […], 5 µM, or 50 µM, followed by incubation for 72 hours at 37 °C. Then, the culture was washed with PBS, and 10 µL of a 5 mg/ml MTT solution was aliquoted into each well. After incubating the culture in a CO2 incubator for 4 hours, the culture medium was removed, and 100 µL of dimethyl sulfoxide (DMSO) was added thereto, followed by stirring for 10 minutes. Thereafter, absorbance was measured at a wavelength of 540 nm by using a spectrophotometer. Meanwhile, a untreated group was used as a control, and a group treated with 1 µM EGF was used as a positive control.

[3] = tested on: HOXC13, MSX2, and FOXN1 in human hair germinal matrix cells (HHGMCs); assay: RT-PCR of activators of germinal matrix cells; assay type: cell-based; details: RNA level; 5 µM, or 50 µM, 24 hours; FIGS. 13 and 14
Description: In this experimental example, effects of a peptide according to an embodiment on expression of Homeobox protein Hox-C13 (HOXC13), Msh homeobox 2 (MSX2), and Forkhead box protein N1 (FOXN1), which are transcription factors related to activation of human hair germinal matrix cells ([…]), were examined. Specifically, human hair germinal matrix cells were seeded on a 6-well plate at a density of 4×10^5 cell/well, followed by incubation for 24 hours in a mesenchymal stem cell complete medium. Subsequently, the culture medium was replaced with a serum free mesenchymal stem cell complete medium, followed by incubation for 24 hours. Thereafter, a peptide according to an embodiment was aliquoted thereinto at a concentration of […], 5 μM, or 50 μM, followed by incubation for 24 hours at 37 °C. Then, gene expression was examined in the RNA level in the same manner as in Experimental Example 2-3 by using primers of Table 4 below. Meanwhile, a untreated group was used as a control, and a group treated with 50 nM EGF was used as a positive control.

beta-catenin = assay: Nuclear beta-catenin Western blot in hair follicle dermal papilla cells; assay type: cell-based, human; details: nuclear proteins, HDAC1 as nuclear marker, FIGS. 5 and 6
Description: In this experimental example, effects of a peptide according to an embodiment on proliferation mechanism of human hair follicle dermal papilla cells were examined. Specifically, human hair follicle dermal papilla cells were incubated in the same manner as in Experimental Example 2-2, and treated with a peptide according to an embodiment. Then, nuclear proteins were isolated from the culture by using a nuclear protein extraction kit (Thermo scientific, USA). Subsequently, expression levels of proteins were examined in the same manner as in Experimental Example 2-2 by using beta-catenin (cell signaling, USA) and HDAC1 (santa cruz, USA) antibodies. Meanwhile, a untreated group was used as a control, and a group treated with 10 ng/mL recombinant human Wnt-3a protein (rhWnt-3a, R&D systems (USA, MN)) was used as a positive control.

[4] = tested on: Ha3-II, Keratin 5, Keratin 14, and Keratin 19 in human hair outer root sheath cells (HHORSCs); assay: RT-PCR of activators of outer root sheath cells; assay type: cell-based; details: RNA level; 5 µM, or 50 µM, 24 hours; FIGS. 11 and 12
Description: In this experimental example, effects of a peptide according to an embodiment on expression of type I cuticular Ha3-II (Ha3-II), Keratin 5, Keratin 14, and Keratin 19, which are cytokine related to activation of human hair outer root sheath cells (HHORSCs), were examined. Specifically, human hair outer root sheath cells were seeded on a 6-well plate at a density of 4×10^5 cell/well, followed by incubation for 24 hours in a mesenchymal stem cell complete media. Subsequently, the culture medium was replaced with a serum free mesenchymal stem cell complete medium, followed by incubation for 24 hours. Thereafter, a peptide according to an embodiment was aliquoted thereinto at a concentration of […], 5 µM, or 50 µM, followed by incubation for 24 hours at 37 °C. Then, gene expression was examined in the RNA level in the same manner as in Experimental Example 2-3 by using primers of Table 3 below. Meanwhile, a untreated group was used as a control, and a group treated with 50 nM EGF was used as a positive control.

DKK-1 (Dickkopf-1) = assay: DKK-1 expression (Western blot) in DHT-treated hair follicle dermal papilla cells; assay type: cell-based, human; details: dihydrotestosterone (DHT) added; 5 µM, or 50 µM; FIGS. 9 and 10

What does the source list for “Arg (R)-Cys (C)-Cys (C)-Gly (G) [Peptide-1]”?
phosphorylation of ERF and AKT (ERF and AKT): induced; expression of LEF-1, c-Myc, and/or cyclin D1 [1]: increased; proliferation of dermal papilla cells [2]: promoted; expression of HOXC13, MSX2, and FOXN1 [3]: increased; migration of beta-catenin from cytoplasm to a nucleus (beta-catenin): confirmed; expression of Ha3-II, Keratin 14, and Keratin 19 [4]: increased; expression of DKK-1 (DKK-1 (Dickkopf-1)): inhibited
